Data on two compounds can be found in publication PMC4872784 (Oncotarget, 2016).

Series [1] concerns MOLM14 cells. Nature of the series: total ROS generation (CM-H2DCFDA flow cytometry). It is filed as cell-based, human. Conditions: 16h. The protocol: A. Quantification of the percentage of early apoptotic cells (Annexin-V+/7-AAD-) from three independent experiments in which cells were stained for apoptosis with 7-AAD and Annexin-V then analyzed by flow cytometry. […] C. […] 16h after addition of drugs, cells were washed and analyzed by flow cytometry for CM-H2DCFDA fluorescence (indicating total ROS generation) in the FL1 channel. Mean Fluorescence Intensity (MFI) was normalized to that of vehicle control (0.5% DMSO) with no pretreatment. […] Viable cell counts, obtained via Trypan Blue dye exclusion, were normalized to vehicle (0.02% DMSO)-treated samples +/– pretreatment.
Cells were preloaded with 5 μM 5-(and-6)-chloromethyl-2′,7′-dichlorodihydrofluorescein diacetate (CM-H2DCFDA, Life Technologies) in PBS (30min, 37°C), then washed before drug treatment. Following 16h incubation with drugs, cells were analyzed by flow cytometry.
A general note: In flow cytometry, cells or beads pass a laser one at a time.

For a further series, the system named is MOLM14 or KOPN8 cells. Nature of the series: drug combinations, alamarBlue 48h, combination indices. Particulars: for effect of addition on cytotoxicity of ARA, DOX, ETO, MID, LES, SOR: equipotency ratio based on IC50s, 48h. The protocol: Supplementary Figure S10: Drug combinations against MOLM14. MOLM14 cells were treated with a range of concentrations
experiment was performed three times in triplicate, and error bars represent the SEM.
Combination indices (CI) were computed for each drug combination using CompuSyn software, based on the Median Effect
Principle and the CI theorem of Chou-Talalay, wherein CI = 1 indicates additivity, CI < 1 synergism, and CI > 1 antagonism. Data are
Supplementary Figure S11: Drug combinations against KOPN8. KOPN8 cells were treated with a range of concentrations
Each experiment was performed at least three times in triplicate, and error bars represent the SEM.

Series [2] concerns MOLM14 cells. The series is described as follows: cell cycle distribution (BrdU/7-AAD flow cytometry). In kind it is cell-based, human. Conditions: for sub-G1-phase cells: vehicle 2%; for S-phase cells: vehicle 38%; for G1-phase cells: vehicle 47%. The protocol: After cell debris was gated out using FSC/SSC parameters, 10,000 cellular events were collected per sample. Data was analyzed and fluorescence compensation performed using FlowJo software, version 10 (Tree Star, Ashland, OR). A. Representative plots from a single experiment.
Cells were pulse-labeled with 10 μM 5-bromo-2-deoxyuridine (BrdU, BD Pharmingen, San Diego, CA) for 90min (37°C), washed in PBS, then fixed in 70% ethanol (1-3d, −20°C). DNA was denatured (2 M HCl, 30min, room temperature) and neutralized (0.1 M Na2B4O7, 10min, room temperature). Cells were stained with APC-conjugated anti-BrdU antibody (BD Pharmingen) and 7-AAD (BioLegend, San Diego, CA), and analyzed by flow cytometry.

The next series concerns NB-4 cells. Nature of the series: alamarBlue cytotoxicity assay, 48h. In kind it is cell-based, human. Particulars: NB-4 (AML), RPMI + 10% FBS. As for the experimental part: (§1) Following subtraction of background fluorescence from all wells, fluorescence of drug-treated cells was normalized to that of vehicle (<0.5% DMSO)-treated cells to determine the effect of each drug concentration on viability. Each cell line was tested in triplicate and in at least three independent experiments. IC50 (concentration that inhibits cell growth by 50%) values were calculated using CompuSyn software (ComboSyn, Paramus, NJ). […] In addition several cell lines were initially cultured and tested in alternative media (Supplementary Table S2). […] Colony counts were normalized to vehicle-treated controls (100%). Three independent experiments were performed.
(§2) In most experiments, cytotoxicity was assessed using alamarBlue assays (Life Technologies, Grand Island, NY). In experiments using NAC and DFO, which can interfere with alamarBlue assay performance, Trypan Blue dye exclusion was used instead. […]
(§3) experiments performed in triplicate. […] Age refers to age […]
(§4) at the time of leukemia diagnosis of the patient from whom the cell line was derived. (–) Indicates information unavailable.
(§5) *Cell lines with FLT3/ITD mutations.
(§6) *The MV-4–11 cell line was derived from a patient with a biphenotypic B-myelomonocytic leukemia; K562 was derived […]
(§7) 1A. p53 status was obtained from http://cancer.sanger.ac.uk/cell_lines/cbrowse/all and http://p53.free.fr/Database/Cancer_ cell_lines/Leukemia_cancer. html. WT: wild type. Mut: mutant. SM: single mutation. DM: double mutation. MM: multiple mutations. Fs: Frameshift mutation. Null: protein expression undetectable.
Background: Alamar Blue is a resazurin reagent that responds to reducing activity.

Another series concerns Kasumi-2 cells. The series is described as follows: alamarBlue cytotoxicity assay, 48h. Conditions: Kasumi-2 (B-ALL), RPMI + 10% FBS. In kind it is cell-based, human. The protocol:
as §1, §2, §3, §4, §5, §6, §7

The next series relates to OCI-AML3 cells. The series is described as follows: alamarBlue cytotoxicity assay, 48h. It is filed as cell-based, human. The protocol:
as §1, §2, §3, §4, §5, §6, §7

For a further series, the system named is U937 cells. The series is described as follows: alamarBlue cytotoxicity assay, 48h. It is filed as cell-based, human. Conditions: RPMI + 10% FBS. The protocol:
as §1, §2, §3, §4, §5, §6, §7

A further series concerns KG-1a cells. The series is described as follows: alamarBlue cytotoxicity assay, 48h. In kind it is cell-based, human. Conditions: KG-1a (AML), RPMI + 10% FBS. The protocol:
as §1, §2, §3, §4, §5, §6, §7

A further series has as its system REH cells. The series is described as follows: alamarBlue cytotoxicity assay, 48h. In kind it is cell-based, human. The protocol:
as §1, §2, §3, §4, §5, §6, §7

For the next series, the system named is ML-2 cells. The series is described as follows: alamarBlue cytotoxicity assay, 48h. It is filed as cell-based, human. Particulars: ML-2 (AML), RPMI + 10% FBS. The protocol:
as §1, §2, §3, §4, §5, §6, §7

For the next series, the system named is RS4;11 cells. The series is described as follows: alamarBlue cytotoxicity assay, 48h. It is filed as cell-based, human. Conditions: RS4;11 (B-ALL), RPMI + 10% FBS. As for the experimental part: as §1, §2, §3, §4, §5, §6, §7
Another series relates to MOLT-3 cells. The series is described as follows: alamarBlue cytotoxicity assay, 48h. Conditions: MOLT-3 (T-ALL), RPMI + 10% FBS. It is filed as cell-based, human. As for the experimental part:
as §1, §2, §3, §4, §5, §6, §7

A further series concerns K562 cells. The series is described as follows: alamarBlue cytotoxicity assay, 48h. In kind it is cell-based, human. Conditions: K562 (CML), RPMI + 10% FBS. As for the experimental part: as §1, §2, §3, §4, §5, §6, §7
For the next series, the system named is NALM-6 cells. Nature of the series: alamarBlue cytotoxicity assay, 48h. Conditions: NALM-6 (B-ALL), RPMI + 10% FBS. In kind it is cell-based, human. The protocol:
as §1, §2, §3, §4, §5, §6, §7

A further series has as its system CCRF-CEM cells. Nature of the series: alamarBlue cytotoxicity assay, 48h. In kind it is cell-based, human. Particulars: CCRF-CEM (T-ALL), RPMI + 10% FBS. The protocol:
as §1, §2, §3, §4, §5, §6, §7

Read-outs that look alike come from different tables or passages of the source.

Broadly, the IC50 is the point on the concentration scale where inhibition reaches its midpoint.

On to `C[C@@H]1CCC2[C@@H](C)[C@@H](CC(COP(=O)(Oc3ccccc3)Oc3ccccc3)C[C@H]3O[C@@H]4O[C@@]5(C)CCC6[C@H](C)CCC([C@H]3C)[C@]64OO5)O[C@@H]3O[C@@]4(C)CCC1[C@@]23OO4` (some centres unmarked) [ART-838, artemisinin-derived trioxane diphenylphosphate dimer 838], for which the “total cellular ROS levels” value in the series with MOLM14 cells [1] (ART-838 0.1 μM) is given as “significantly increased total cellular ROS levels”. Further, the “interaction with kinase inhibitors MID, LES, SOR” value in the series with MOLM14 or KOPN8 cells (combination indices) was “combined synergistically with all three kinase inhibitors”. Also, the “effect of addition on cytotoxicity of ARA, DOX, ETO, MID, LES, SOR” value in the series with MOLM14 or KOPN8 cells is “enhanced the cytotoxicity of all six tested drugs”. Further, in the series on MOLM14 cells [2] (0.1 μM ART-838, 24h), the sub-G1-phase cells is given as > 10%. For the same compound, the S-phase cells with MOLM14 cells [2] (0.1 μM ART-838, 24h) was < 7%. Besides, the G1-phase cells in the series with MOLM14 cells [2] (0.1 μM ART-838, 24h) is reported as > 61%. The half-inhibitory concentration (IC50) in the series with NB-4 cells was 26 ± 7 nM; in the series with Kasumi-2 cells, 0.026 ± 0.004 µM; in the series on OCI-AML3 cells (OCI-AML3 (AML), 48h, RPMI + 10% FBS, read-out: IC50), 168 ± 41 nM; in the series with OCI-AML3 cells (OCI-AML3, original medium RPMI + 20% FBS, read-out: IC50 in original medium) it was 287 nM; with U937 cells (U937 (AML)), 10 ± 1 nM; in the series with KG-1a cells it was 0.547 ± 0.147 µM. For the same compound, the IC50 turned out to be 0.095 ± 0.04 µM with REH cells (REH (B-ALL), 48h, RPMI + 10% FBS, read-out: IC50); 0.123 µM in the series with REH cells (REH, original medium RPMI + 20% FBS, read-out: IC50 in original medium); 0.095 µM with REH cells (read-out: IC50 in RPMI+10% FBS, REH, Table S2); 21 ± 11 nM with ML-2 cells; 62 ± 23 nM in the series on RS4;11 cells; 97 ± 58 nM in the series on MOLT-3 cells. Further, the values for the half-maximal inhibitory concentration (IC50) in the series with K562 cells, in the series with NALM-6 cells and in the series with CCRF-CEM cells were 94 ± 12 nM, 16 ± 5 nM and 0.483 ± 0.195 µM, respectively. Moreover, the “-Fold Difference in IC50 between media” value with OCI-AML3 cells (OCI-AML3, RPMI + 20% FBS vs RPMI+10% FBS) is listed as 1.7; with REH cells (REH, RPMI + 20% FBS vs RPMI+10% FBS) it was 1.3.

On to `C[C@H]1[C@H](OC(=O)CCC(=O)O)O[C@@H]2O[C@@]3(C)CC[C@H]4[C@H](C)CC[C@@H]1[C@@]24OO3` [AS, artesunate], for which, in the series on MOLM14 cells [1] (AS 5 μM), the “total cellular ROS levels” value is “significantly increased total cellular ROS levels”. Besides, the “interaction with SOR” value in the series with MOLM14 or KOPN8 cells (combination indices) is “additive effects”. The “effect of addition on cytotoxicity of ARA, DOX, ETO, MID, LES, SOR” value in the series on MOLM14 or KOPN8 cells is “enhanced the cytotoxicity of all six tested drugs”. For the same compound, the sub-G1-phase cells in the series with MOLM14 cells [2] (5 μM AS, 24h) is > 10%. The S-phase cells in the series on MOLM14 cells [2] (5 μM AS, 24h) is given as < 7%. Besides, the G1-phase cells in the series with MOLM14 cells [2] (5 μM AS, 24h) is listed as > 61%. The IC50 was 947 ± 141 nM in the series with NB-4 cells (Homo sapiens); 6.65 ± 0.34 µM in the series with Kasumi-2 cells (Homo sapiens); 1810 ± 200 nM with OCI-AML3 cells (Homo sapiens, OCI-AML-3, OCI-AML3 (AML), 48h, RPMI + 10% FBS, read-out: IC50); 3560 nM with OCI-AML3 cells (Homo sapiens, OCI-AML-3, OCI-AML3, original medium RPMI + 20% FBS, read-out: IC50 in original medium); 1060 ± 170 nM in the series on U937 cells (Homo sapiens, U-937, U937 (AML)); 6.26 ± 0.3 µM with KG-1a cells (Homo sapiens). Moreover, the IC50 is 10.3 µM in the series with REH cells (Homo sapiens, read-out: IC50 in RPMI+10% FBS, REH, Table S2); 10.3 ± 3 µM with REH cells (Homo sapiens, REH (B-ALL), 48h, RPMI + 10% FBS, read-out: IC50); 15.4 µM in the series with REH cells (Homo sapiens, REH, original medium RPMI + 20% FBS, read-out: IC50 in original medium); 1460 ± 210 nM in the series on ML-2 cells (Homo sapiens); 5420 ± 1890 nM in the series on RS4;11 cells (Homo sapiens); 4100 ± 620 nM with MOLT-3 cells (Homo sapiens). The 50% inhibitory concentration (IC50) was 4750 ± 850 nM in the series on K562 cells (Homo sapiens), 5190 ± 430 nM with NALM-6 cells (Homo sapiens) and 7.34 ± 1.24 µM with CCRF-CEM cells (Homo sapiens).
